Key:
[1] = tested on: Hepatotoxicity; assay: Literature-mined compound from Fourches et al multi-species drug-induced liver injury (DILI) dataset, effect in humans; settings: human
[2] = tested on: Hepatotoxicity; assay: Literature-mined compound from Fourches et al multi-species drug-induced liver injury (DILI) dataset, effect in rodents; settings: rodentia
[3] = tested on: Hepatotoxicity; assay: Literature-mined compound from Fourches et al multi-species drug-induced liver injury (DILI) dataset, effect in non-rodents

Molecule | Hepatotoxicity [1] | Hepatotoxicity [2] | Hepatotoxicity [3] | Hepatotoxicity ([1]; Liver) | Hepatotoxicity ([2]; Liver) | Hepatotoxicity ([3]; Liver)
C[C@@H](CN1CC(=O)NC(=O)C1)N1CC(=O)NC(=O)C1 [DEXRAZOXANE] | no drug-induced liver injury reported | drug-induced liver injury reported | no drug-induced liver injury reported |  |  | 
CC#C[C@]1(O)CC[C@H]2[C@@H]3CCC4=CC(=O)CCC4=C3[C@@H](c3ccc(N(C)C)cc3)C[C@@]21C [MIFEPRISTONE] | no drug-induced liver injury reported | drug-induced liver injury reported | no drug-induced liver injury reported |  |  | 
[H]/N=C(\N/C(=N/[H])Nc1ccc(Cl)cc1)NC(C)C [PROGUANIL] | drug-induced liver injury reported | no drug-induced liver injury reported | no drug-induced liver injury reported |  |  | 
Oc1c(I)cc(Cl)c2cccnc12 [CLIOQUINOL] | no drug-induced liver injury reported | drug-induced liver injury reported | no drug-induced liver injury reported |  |  | 
OC[C@H]1OC(O)[C@H](O)[C@@H](O)[C@@H]1O (some centres undefined) [DEXTROSE] | drug-induced liver injury reported | drug-induced liver injury reported | drug-induced liver injury reported |  |  | 
VITAMIN B12 | drug-induced liver injury reported | no drug-induced liver injury reported | no drug-induced liver injury reported |  |  | 
CCOc1ccc2nc(S(N)(=O)=O)sc2c1 [ETHOXZOLAMIDE] | no drug-induced liver injury reported | drug-induced liver injury reported | no drug-induced liver injury reported |  |  | 
Cc1cn[nH]c1 [FOMEPIZOLE] | drug-induced liver injury reported | drug-induced liver injury reported | no drug-induced liver injury reported |  |  | 
CC(=O)S[C@@H]1CC2=CC(=O)CC[C@]2(C)[C@H]2CC[C@@]3(C)[C@@H](CC[C@@]34CCC(=O)O4)[C@H]12 [SPIRONOLACTONE] | drug-induced liver injury reported | drug-induced liver injury reported | no drug-induced liver injury reported |  |  | 
CCCCCCCCCC(=O)O[C@H]1CC[C@H]2[C@@H]3CCC4=CC(=O)CC[C@@H]4[C@H]3CC[C@]12C [NANDROLONE DECANOATE] | no drug-induced liver injury reported | drug-induced liver injury reported | no drug-induced liver injury reported |  |  | 
Cc1ccc(S(=O)(=O)NC(=O)NN2CCCCCC2)cc1 [TOLAZAMIDE] | drug-induced liver injury reported | drug-induced liver injury reported | no drug-induced liver injury reported |  |  | 
CC(=O)OCC[N+](C)(C)C [ACETYLCHOLINE] |  |  |  | no drug-induced liver injury reported | drug-induced liver injury reported | drug-induced liver injury reported
Clc1ccc(C(c2ccc(Cl)cc2)C(Cl)(Cl)Cl)cc1 [CHLOROPHENOTHANE] | no drug-induced liver injury reported | drug-induced liver injury reported | no drug-induced liver injury reported |  |  | 
CCOC(=O)C1(c2ccccc2)CCN(C)CC1 [MEPERIDINE] | drug-induced liver injury reported | no drug-induced liver injury reported | no drug-induced liver injury reported |  |  | 
CO/N=C(\C(=O)N[C@@H]1C(=O)N2C(C(=O)O)=C(CSc3nc(=O)c(=O)[nH]n3C)CS[C@H]12)c1csc(N)n1 [CEFTRIAXONE] | drug-induced liver injury reported | drug-induced liver injury reported | drug-induced liver injury reported |  |  | 
COc1cc(C2Oc3cc([C@H]4Oc5cc(O)cc(O)c5C(=O)[C@@H]4O)ccc3OC2CO)ccc1O (some centres undefined) [SILIBININ] | drug-induced liver injury reported | drug-induced liver injury reported | no drug-induced liver injury reported |  |  | 
C[C@@H]1C[C@H]2[C@@H]3CCC4=CC(=O)C=C[C@]4(C)[C@@]3(F)[C@@H](O)C[C@]2(C)[C@@]1(O)C(=O)CO [DEXAMETHASONE] | drug-induced liver injury reported | drug-induced liver injury reported | drug-induced liver injury reported |  |  | 
c1ccoc1 [FURAN] | no drug-induced liver injury reported | drug-induced liver injury reported | no drug-induced liver injury reported |  |  | 
NC(=O)c1ccccc1O [SALICYLAMIDE] | drug-induced liver injury reported | drug-induced liver injury reported | no drug-induced liver injury reported |  |  | 

Molecule | Hepatotoxicity [1] | Hepatotoxicity [2] | Hepatotoxicity [3] | Hepatotoxicity ([1]; Liver) | Hepatotoxicity ([2]; Liver) | Hepatotoxicity ([3]; Liver)
CC[C@@H](C(N)=O)N1CCCC1=O | drug-induced liver injury reported | no drug-induced liver injury reported | no drug-induced liver injury reported |  |  | 
CS(=O)(=O)O.C[C@H](N)C(=O)N[C@@H](C)C(=O)N[C@H]1[C@@H]2CN(c3nc4c(cc3F)c(=O)c(C(=O)O)cn4-c3ccc(F)cc3F)C[C@@H]21 [ALATROFLOXACIN MESYLATE] | drug-induced liver injury reported | no drug-induced liver injury reported | no drug-induced liver injury reported |  |  | 
CN1CCN2c3ncccc3Cc3ccccc3C2C1 (centres undefined) [MIRTAZAPINE] | drug-induced liver injury reported | no drug-induced liver injury reported | no drug-induced liver injury reported |  |  | 
CCCc1nc2c(C)cc(-c3nc4ccccc4n3C)cc2n1Cc1ccc(-c2ccccc2C(=O)O)cc1 | drug-induced liver injury reported | drug-induced liver injury reported | no drug-induced liver injury reported |  |  | 
Cl.N=C(N)N [GUANIDINE HYDROCHLORIDE] | drug-induced liver injury reported | drug-induced liver injury reported | no drug-induced liver injury reported |  |  | 
NCC(CC(=O)O)c1ccc(Cl)cc1 (centres undefined) [BACLOFEN] | drug-induced liver injury reported | no drug-induced liver injury reported | no drug-induced liver injury reported |  |  | 
C[N+](C)(C)CC(=O)O [BETAINE] | no drug-induced liver injury reported | drug-induced liver injury reported | no drug-induced liver injury reported |  |  | 
Cc1c(O)cccc1C(=O)N[C@@H](CSc1ccccc1)[C@H](O)CN1C[C@H]2CCCC[C@H]2C[C@H]1C(=O)NC(C)(C)C | drug-induced liver injury reported | no drug-induced liver injury reported | no drug-induced liver injury reported |  |  | 
Cc1cc2c(s1)Nc1ccccc1N=C2N1CCN(C)CC1 [OLANZAPINE] | drug-induced liver injury reported | no drug-induced liver injury reported | no drug-induced liver injury reported |  |  | 
C[C@H]1COc2c(N3CCN(C)CC3)c(F)cc3c(=O)c(C(=O)O)cn1c23.C[C@H]1COc2c(N3CCN(C)CC3)c(F)cc3c(=O)c(C(=O)O)cn1c23.O [LEVOFLOXACIN] | drug-induced liver injury reported | no drug-induced liver injury reported | no drug-induced liver injury reported |  |  | 
Nc1ccn([C@@H]2CS[C@H](CO)O2)c(=O)n1 [LAMIVUDINE] | drug-induced liver injury reported | drug-induced liver injury reported | no drug-induced liver injury reported |  |  | 
CN(C)CCC(c1ccc(Cl)cc1)c1ccccn1 (centres undefined) [CHLORPHENIRAMINE] | drug-induced liver injury reported | no drug-induced liver injury reported | no drug-induced liver injury reported |  |  | 
O=C(NCCO[N+](=O)[O-])c1cccnc1 [NICORANDIL] | no drug-induced liver injury reported | drug-induced liver injury reported | no drug-induced liver injury reported |  |  | 
CO[C@H]1/C=C/O[C@@]2(C)Oc3c(C)c(O)c4c(O)c(c(/C=N/N5CCN(C)CC5)c(O)c4c3C2=O)NC(=O)/C(C)=C\C=C\[C@H](C)[C@H](O)[C@@H](C)[C@@H](O)[C@@H](C)[C@H](OC(C)=O)[C@@H]1C [RIFAMPIN] | drug-induced liver injury reported | drug-induced liver injury reported | drug-induced liver injury reported |  |  | 
O=[N+]([O-])O[C@H]1CO[C@H]2[C@@H]1OC[C@H]2O[N+](=O)[O-] [ISOSORBIDE DINITRATE] | drug-induced liver injury reported | drug-induced liver injury reported | no drug-induced liver injury reported |  |  | 
FCOC(C(F)(F)F)C(F)(F)F [SEVOFLURANE] | drug-induced liver injury reported | drug-induced liver injury reported | no drug-induced liver injury reported |  |  | 
CCCCc1oc2ccccc2c1C(=O)c1cc(I)c(OCCN(CC)CC)c(I)c1 [AMIODARONE] |  |  |  | drug-induced liver injury reported | drug-induced liver injury reported | drug-induced liver injury reported
CCCC(C)C1(CC)C(=O)NC(=O)NC1=O (centres undefined) [PENTOBARBITAL] | drug-induced liver injury reported | drug-induced liver injury reported | drug-induced liver injury reported |  |  | 
CN(CCOc1ccc(CC2SC(=O)NC2=O)cc1)c1ccccn1 (centres undefined) [ROSIGLITAZONE] | drug-induced liver injury reported | drug-induced liver injury reported | no drug-induced liver injury reported |  |  | 
